Data from patent US9604998B2, “Inhibitors of the renal outer medullary potassium channel” (MERCK SHARP & DOHME CORP., priority 2013, dated 2017).
Structures can show the parent of a compound that is named as a salt.

Assays:
hROMK (hKir1.1) = hROMK (hKir1.1) (Homo sapiens (Human), UniProt P48048); experiment: Thallium Flux Assay (ROMK channel functional thallium flux, FLIPR-Tetra); format: cell-based; details: HEK293 cells stably expressing hROMK (hKir1.1); read-out: Thallium Flux IC50
Description: HEK293 cells stably expressing hROMK (hKir1.1) were grown at 37° C. in a 10% CO2 humidified incubator in complete growth media: Dulbecco's Modified Eagle Medium supplemented with non-essential amino acids, Penicillin/Streptomycin/Glutamine, G418 and FBS. At >80% confluency, aspirate the media from the flask and rinse with 10 mL Calcium/Magnesium-free PBS. […] To dislodge the cell, gently bang the side of the flask with your hand. Triturate the cells completely and then transfer the cells to 25 mL complete media. Centrifuge at 1,500 rpm for 6 min followed by resuspension in complete growth media and determine cell concentration.
Compound Buffer (per microplate): 20 mL Probenecid/Assay Buffer; 0.3 mM ouabain (10 mM ouabain in water can be stored in amber bottle/aluminum foil at room temperature); Test compound
Stimulant Buffer (prepared at 5× final concentration in 1× FluxOR™ Chloride-Free Buffer): 7.5 mM Thallium sulfate and […] (to give a final assay concentration of 3 mM Thallium/0.3 mM Potassium). Store at 4° C. when not in use. If kept sterile, this solution is good for months.
The ROMK channel functional thallium flux assay is performed in 384 wells, using the FLIPR-Tetra instrument. HEK-hKir1.1 cells are seeded in Poly-D-Lysine microplates and kept in a 37° C.-10% CO2 incubator overnight. On the day of the experiment, the growth media is replaced with the FluxOR™ reagent loading buffer and incubated, protected from light, at ambient temperature (23-25° C.) for 90 min. The loading buffer is replaced with assay buffer±test compound followed by 30 min incubation at ambient temperature, where the Thallium/Potassium stimulant is added to the microplate.
1. Seed HEK-hKir1.1 cells (50 μl at 20,000 cells/well) in 384-well PDL coated Microplates
2. Allow cells to adhere overnight in humidified 37° C./10% CO2 incubator
3. Completely remove cell growth media from microplate and replace with 25 μl loading buffer
4. Incubate Microplate at room temperature, protected form light, for 90 min
5. Remove loading buffer and replace with 25 μl 1× Assay Buffer±test compound.
6. Incubate microplate at room temperature, protected from light, for 30 min
7. […] Excitation=400 nm, Emission=460 & 580 nm. Collect data for ˜10 min.
The fluorescence intensity of wells containing 3 μM of a standard control ROMK inhibitor of the present invention is used to define the ROMK-sensitive component of thallium flux. Fluorescence in the presence of test compounds is normalized to control values to provide % fluorescence change.

Kir1.1 (ROMK1) = Kir1.1 (ROMK1) (Homo sapiens (Human), UniProt P48048); experiment: Electrophysiology Assay (whole cell voltage clamp, IonWorks Quattro); format: cell-based; details: Chinese hamster ovary cells stably expressing Kir1.1; block during voltage step to 0 mV; read-out: Electrophysiology IC50
Chain of Kir1.1 (ROMK1) (P48048 whole entry, species assumed): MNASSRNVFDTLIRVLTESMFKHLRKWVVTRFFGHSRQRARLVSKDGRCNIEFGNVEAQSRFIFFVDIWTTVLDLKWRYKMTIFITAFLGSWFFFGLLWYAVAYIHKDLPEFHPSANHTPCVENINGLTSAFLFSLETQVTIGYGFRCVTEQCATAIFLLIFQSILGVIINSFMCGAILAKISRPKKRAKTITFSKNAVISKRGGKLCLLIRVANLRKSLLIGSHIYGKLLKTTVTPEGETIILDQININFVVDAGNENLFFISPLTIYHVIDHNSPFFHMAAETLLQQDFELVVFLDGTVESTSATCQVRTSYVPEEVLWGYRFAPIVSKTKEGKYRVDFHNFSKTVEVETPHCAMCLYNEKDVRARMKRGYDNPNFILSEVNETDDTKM
Description: Chinese hamster ovary cells stably expressing Kir1.1 channels were maintained in T-75 flasks in cell culture media in a humidified 10% CO2 incubator at 37° C. Prior to an experiment, Kir1.1 expression was induced by overnight incubation with 1 mM sodium butyrate. […] After centrifugation, the cell pellet was resuspended in approximately 4.0 mL of bath solution and placed in the IonWorks instrument. The intracellular solution consisted of (in mM): 80 K gluconate, 40 KCl, 20 KF, 3.2 MgCl2, 3 EGTA, 5 Hepes, pH 7.4. Electrical access to the cytoplasm was achieved by perforation in 0.13 mg/mL amphotericin B for 4 min. […] Voltage protocols and current recordings were performed using the IonWorks HT software/hardware system. Currents were sampled at 1 kHz. No correction for liquid junction potentials was used. The test pulse, consisting of a 100 ms step to 0 mV from a holding potential of −70 mV, followed by a 100 ms voltage ramp from −70 mV to +70 mV, was applied before and after a 6 min compound incubation period. Test compounds were prepared by diluting DMSO stock solutions into the bath solution at 3× the final concentration and placed in the instrument in 96-well polypropylene plates. Current amplitudes were measured using the IonWorks software.

Chain of hROMK (hKir1.1) (P48048 whole entry): as the sequence (P48048 whole entry, species assumed) above

SMILES | IC50 (hROMK (hKir1.1)) | IC50 (Kir1.1 (ROMK1))
Cc1c([C@@H]2CN3CCN(CC(O)c4ccc5c(c4)C[C@H](C)OC5=O)C[C@H]3CO2)ccc2c1COC2=O (single isomer, unassigned) [Example 45] | 470 nM | 120 nM
Cc1c([C@@H]2CN3CCN(CC(O)c4ccc5c(c4)C[C@@H](C)OC5=O)C[C@H]3CO2)ccc2c1COC2=O (single isomer, unassigned) [Example 46] | 280 nM | 110 nM
COc1cc(C(O)CN2CCN3C[C@@H](c4ccc5c(c4C)COC5=O)OC[C@@H]3C2)ccc1C#N (single isomer, unassigned) [Example 47] | 250 nM | 190 nM
Cc1c([C@@H]2CN3CCN(CC(O)c4cc(F)c(C#N)c(F)c4)C[C@H]3CO2)ccc2c1COC2=O (single isomer, unassigned) [Example 49] | 250 nM | 50 nM
Cc1c([C@@H]2CN3CCN(CC(O)c4ccc5c(c4C4CC4)COC5=O)C[C@H]3CO2)ccc2c1COC2=O (single isomer, unassigned) [Example 50] | 440 nM | 250 nM
Cc1c([C@@H]2CN3CCN(CC(O)c4ccc5c(c4C4CC4)COC5=O)C[C@H]3CO2)ccc2c1COC2=O (single isomer, unassigned) [Example 51] | 400 nM | 230 nM
COc1cc(C(O)CN2CCN3C[C@@H](c4ccc5c(c4C)COC5=O)OC[C@@H]3C2)cc(F)c1C#N (single isomer, unassigned) [Example 54] | 340 nM | 170 nM
COc1cc([C@H]2CN3CCN(C[C@H](O)c4ccc5c(c4C)COC5=O)C[C@@H]3CO2)ccc1C#N [Example 1, 4-{(3S,9aR)-8-[(2R)-2-hydroxy-2-(4-methyl-1-oxo-1,3-dihydro-2-benzofuran-5-yl)ethyl]octahydropyrazino[2,1-c][1,4]oxazin-3-yl}-2-methoxybenzonitrile] | 220 nM | 110 nM
Cc1c([C@H](O)CN2CCN3C[C@@H](c4ccc5c(c4C)COC5=O)OC[C@@H]3C2)ccc2c1COC2=O [Example 2, 5-((S)-1-hydroxy-2-((3R,9aS)-3-(4-methyl-1-oxo-1,3-dihydroisobenzofuran-5-yl)hexahydropyrazino[2,1-c][1,4]oxazin-8(1H)-yl)ethyl)-4-methylisobenzofuran-1(3H)-one] | 230 nM | 80 nM
Cc1c([C@@H]2CN3CCN(C[C@H](O)c4ccc5c(c4C)COC5=O)C[C@H]3CO2)ccc2c1COC2=O [Example 3, 5-((R)-1-hydroxy-2-((3R,9aS)-3-(4-methyl-1-oxo-1,3-dihydroisobenzofuran-5-yl)hexahydropyrazino[2,1-c][1,4]oxazin-8(1H)-yl)ethyl)-4-methylisobenzofuran-1(3H)-one] | 120 nM | 50 nM
COc1cc([C@H]2CN3CCN(CC(O)c4ccc5c(c4C)COC5=O)C[C@H]3CO2)ccc1C#N (stereo partly drawn) [Example 4, (3S,9aS)-3-(4-cyano-3-methoxyphenyl)-8-[2-hydroxy-2-(4-methyl-1-oxo-1,3-dihydro-2-benzofuran-5-yl)ethyl]octahydropyrazino[2,1-c][1,4]oxazin-5-ium chloride] | 430 nM | 80 nM
COc1cc(C(O)CN2CCN3C[C@@H](c4ccc5c(c4)COC5=O)OC[C@@H]3C2)c(Cl)cc1C#N (stereo partly drawn) [Example 10, (3R,9aS)-8-[2-(2-chloro-4-cyano-5-methoxyphenyl)-2-hydroxyethyl]-3-(1-oxo-1,3-dihydro-2-benzofuran-5-yl)octahydropyrazino[2,1-c][1,4]oxazin-5-ium trifluoroacetate] | 550 nM | 130 nM
Cc1c([C@@H](O)CN2CCN3C[C@@H](c4ccc5c(c4)COC5=O)OC[C@@H]3C2)ccc2c1COC2=O [Example 11, (3R,9aS)-8-[(2R)-2-hydroxy-2-(4-methyl-1-oxo-1,3-dihydro-2-benzofuran-5-yl)ethyl]-3-(1-oxo-1,3-dihydro-2-benzofuran-5-yl)octahydropyrazino[2,1-c][1,4]oxazin-5-ium trifluoroacetatep] | 360 nM | 60 nM
Cc1c([C@H](O)CN2CCN3C[C@@H](c4ccc5c(c4)COC5=O)OC[C@@H]3C2)ccc2c1COC2=O [Example 12, (3R,9aS)-8-[(2S)-2-hydroxy-2-(4-methyl-1-oxo-1,3-dihydro-2-benzofuran-5-yl)ethyl]-3-(1-oxo-1,3-dihydro-2-benzofuran-5-yl)octahydropyrazino[2,1-c][1,4]oxazin-5-ium chloride] | 190 nM | 30 nM
Cc1c(C(O)CN2CCN3C[C@@H](c4ccc5c(c4C)COC5=O)OC[C@@H]3C2)ccc(F)c1C#N (stereo partly drawn) [Example 13, (3R,9aS)-8-[2-(3-cyano-4-fluoro-2-methylphenyl)-2-hydroxyethyl]-3-(4-methyl-1-oxo-1,3-dihydro-2-benzofuran-5-yl)octahydropyrazino[2,1-c][1,4]oxazin-5-ium trifluoroacetate] | 270 nM | 220 nM
COc1cc([C@H]2CN3CCN(CC(O)c4cc(OC)c(C#N)cc4F)C[C@@H]3CO2)ccc1C#N (stereo partly drawn) [Example 14, (3S,9aR)-8-[2-(4-cyano-2-fluoro-5-methoxyphenyl)-2-hydroxyethyl]-3-(4-cyano-3-methoxyphenyl)octahydropyrazino[2,1-c][1,4]oxazin-5-ium chloride] | 580 nM | 270 nM
COc1cc(C(O)CN2CCN3C[C@@H](c4ccc5c(c4C)COC5=O)OC[C@@H]3C2)c(F)cc1C#N (stereo partly drawn) [Example 15, (3R,9aS)-8-[2-(4-cyano-2-fluoro-5-methoxyphenyl)-2-hydroxyethyl]-3-(4-methyl-1-oxo-1,3-dihydro-2-benzofuran-5-yl)octahydropyrazino[2,1-c][1,4]oxazin-5-ium chloride] | 670 nM | 290 nM
Cc1c([C@@H](O)CN2CCN3C[C@H](c4ccc(C#N)c(F)c4)OC[C@H]3C2)ccc2c1COC2=O [Example 28, (3S,9aR)-3-(4-cyano-3-fluorophenyl)-8-[(2R)-2-hydroxy-2-(4-methyl-1-oxo-1,3-dihydro-2-benzofuran-5-yl)ethyl]octahydropyrazino[2,1-c][1,4]oxazin-8-ium chloride] | 190 nM | 90 nM
Cc1c([C@@H](O)CN2CCN3C[C@@H](c4ccc(C#N)c(F)c4)OC[C@H]3C2)ccc2c1COC2=O [Example 29, (3R,9aR)-3-(4-cyano-3-fluorophenyl)-8-[(2R)-2-hydroxy-2-(4-methyl-1-oxo-1,3-dihydro-2-benzofuran-5-yl)ethyl]octahydropyrazino[2,1-c][1,4]oxazin-8-ium chloride] | 490 nM | 80 nM
COc1c([C@@H]2CN3CCN(C[C@H](O)c4ccc5c(c4C)COC5=O)C[C@@H]3CO2)ccc(C#N)c1F [Example 32, (3R,9aR)-3-(4-cyano-3-fluoro-2-methoxyphenyl)-8-[(2R)-2-hydroxy-2-(4-methyl-1-oxo-1,3-dihydro-2-benzofuran-5-yl)ethyl]octahydropyrazino[2,1-c][1,4]oxazin-8-ium chloride] | 280 nM | 180 nM
